# pEC50: −log10 of the molar value. Where “and” joins values, the source holds several entries; their conditions need not be identical. Equal values may be shown once.
# Target: T1, OR2W1 (Homo sapiens, UniProt Q9Y3N9)
# T1 sequence (Q9Y3N9 1-320): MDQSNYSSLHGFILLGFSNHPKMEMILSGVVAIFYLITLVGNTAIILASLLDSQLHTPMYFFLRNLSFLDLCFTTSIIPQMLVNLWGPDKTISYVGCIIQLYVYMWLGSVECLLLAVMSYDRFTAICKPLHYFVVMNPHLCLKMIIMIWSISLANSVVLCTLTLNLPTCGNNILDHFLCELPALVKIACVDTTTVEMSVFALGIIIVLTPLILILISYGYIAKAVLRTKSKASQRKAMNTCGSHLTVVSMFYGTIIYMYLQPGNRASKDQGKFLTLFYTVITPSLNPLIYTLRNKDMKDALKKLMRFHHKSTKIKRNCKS
# Assay: Dual-Glo luciferase reporter gene assay, OR2W1 in Hana3A cells
# Assay type: cell-based
# Parameters: The open reading frames of ORs were amplified using Phusion polymerase; Rho-tag (first 20 amino acids of human rhodopsin) (N); expressed in transfected cells; host or cells: Hana3A cells (derived from HEK293T), pCI vector; co-transfected with human RTP1S, M3 receptor, CRE-Luc and SV40-RL
# Settings: for activation of OR2W1 in dose-responses: Figure 4B; for Bottom / Top: log(agonist) vs. response (three parameters), normalized (L-400/R-400); for normilazed value = (L-400/R-400): three replicates
# Method: Hana3A cells were maintained in minimal essential medium containing 10% FBS (vol/vol) with penicillin-streptomycin and amphotericin B (1/200 each vol/vol) at 37 °C and 5% CO2. Hana3A cells are derived from HEK293T [57] and are optimized for OR studies as shown in several studies, compared to earlier OR expression in Sf9 insect cells in Gat et al., and in Xenopus oocytes, COS-7, PC12h and CHO-K1 cells in Katada et al..
# The Dual-Glo luciferase assay system (Promega, Madison, WI, USA) was used to evaluate the functionality of wild-type OR1A1 and OR2W1 in an in vitro system. The open reading frames of ORs were amplified using Phusion polymerase (Thermo Fisher Scientific, Waltham, MA, USA). Amplified fragments were cloned into pCI expression vector (Promega, Madison, WI, USA) containing the sequence encoding the first 20 amino acids of human rhodopsin (Rho-tag) at N-terminal. Hana3A cells have been cultured and plated the day before transfection with 6 mL at 1/10 of a 100% confluence 100 mm plate into 96-well plates coated with poly D-lysine. After overnight incubation, the required genes were transfected using, for each plate, 5 ng SV40-RL, 10 ng CRE-Luc, 5 ng human RTP1S [72], 2.5 ng M3 receptor [73] and 5 ng of receptor (OR1A1, OR2W1 or empty vector Rho-pCI) plasmid. After around 18 h of transfection, cells were stimulated during 3.5 h by 25 µL of odorant diluted in CD293 + 1% glutamine + 30 µM CuCl2. Odorants were obtained from Sigma Aldrich (St. Louis, MO, USA) and diluted at 1 M concentration in DMSO as stock solutions. […] The luminescence of Firefly (Luc) and Renilla (Rluc) luciferase, were then sequentially monitored by injecting the corresponding substrate following the supplier’s protocol. The activity in each well was normalized as (Luc-400)/(Rluc-400). The response of the receptor was also normalized to its basal activity as (NLX/NL0)-1 where NL0 is the normalized luminescence value at 0 µM of odorant and NLX the value at X µM. […] Raw results were first analyzed with Excel (Microsoft Corporation, Albuquerque, NM, USA) and dose response curves, max efficacy and EC50 have been determined with GraphPrism 6 software (GraphPad Software, La Jolla, CA, USA). Areas under the curves (AUC) were calculated in Excel by summing all the OR responses at different concentrations for each odorant.
# [1] = OR2W1, 95% CI (profile likelihood)
smiles,measurement,setting,value
C=Cc1ccc(OCCCCOc2ccc(C=C)cc2)cc1 [1-Ethenyl-4-[4-(4-ethenylphenoxy)butoxy]benzene],activation of OR2W1 in dose-responses,,non-agonist
same,Bottom,[1],13.33 to 18.34
same,Top,[1],19.48 to 21.36
same,normilazed value = (L-400/R-400),"OR2W1, log[molecule], M = -3.5, listed as 1,4 bis(4-vinylphenoxy)butane",14.9951 and 16.6432 and 18.6473
same,normilazed value = (L-400/R-400),"OR2W1, log[molecule], M = -3.75, listed as 1,4 bis(4-vinylphenoxy)butane",18.9044 and 23.5612 and 19.9145
same,normilazed value = (L-400/R-400),"OR2W1, log[molecule], M = -4, listed as 1,4 bis(4-vinylphenoxy)butane",20.1703 and 23.9778 and 22.651
same,normilazed value = (L-400/R-400),"OR2W1, log[molecule], M = -4.25, listed as 1,4 bis(4-vinylphenoxy)butane",19.282 and 20.5728 and 18.4952
same,normilazed value = (L-400/R-400),"OR2W1, log[molecule], M = -4.5, listed as 1,4 bis(4-vinylphenoxy)butane",18.9465 and 18.6061 and 21.68
same,normilazed value = (L-400/R-400),"OR2W1, log[molecule], M = -4.75, listed as 1,4 bis(4-vinylphenoxy)butane",18.1682 and 21.4587 and 25.3103
same,normilazed value = (L-400/R-400),"OR2W1, log[molecule], M = -5, listed as 1,4 bis(4-vinylphenoxy)butane",19.2619 and 21.2657 and 21.338
same,normilazed value = (L-400/R-400),"OR2W1, log[molecule], M = -5.25, listed as 1,4 bis(4-vinylphenoxy)butane",22.445 and 21 and 22.2921
same,normilazed value = (L-400/R-400),"OR2W1, log[molecule], M = -5.5, listed as 1,4 bis(4-vinylphenoxy)butane",19.9195 and 18.3482 and 19.8887
same,normilazed value = (L-400/R-400),"OR2W1, log[molecule], M = -5.75, listed as 1,4 bis(4-vinylphenoxy)butane",21.6432 and 19.6062 and 21.4331
same,normilazed value = (L-400/R-400),"OR2W1, log[molecule], M = -6, listed as 1,4 bis(4-vinylphenoxy)butane",16.9263 and 20.1438 and 17.6109
CCOc1ccc2ccccc2c1 [2-Ethoxynaphthalene],activation of OR2W1 in dose-responses,,activated OR2W1 in a dose-response manner
same,potency relative to the strongest OR2W1 agonist of Bushdid et al.,"OR2W1, comparison with ref 14",two times more potent
same,Bottom,[1],9.687 to 19.33
same,Top,[1],32.32 to 36.67
same,normilazed value = (L-400/R-400),"OR2W1, log[molecule], M = -3.5",30.4896 and 23.1676 and 21.7127
same,normilazed value = (L-400/R-400),"OR2W1, log[molecule], M = -3.75",33.5459 and 34.0167 and 35.7983
same,normilazed value = (L-400/R-400),"OR2W1, log[molecule], M = -4",29.5332 and 32.1424 and 36.1752
same,normilazed value = (L-400/R-400),"OR2W1, log[molecule], M = -4.25",38.6596 and 38.9119 and 38.3122
same,normilazed value = (L-400/R-400),"OR2W1, log[molecule], M = -4.5",28.5017 and 40.4493 and 38.4842
same,normilazed value = (L-400/R-400),"OR2W1, log[molecule], M = -4.75",39.1645 and 34.3635 and 36.5051
same,normilazed value = (L-400/R-400),"OR2W1, log[molecule], M = -5",30.1654 and 33.9031 and 33.7738
same,normilazed value = (L-400/R-400),"OR2W1, log[molecule], M = -5.25",31.8777 and 31.6329 and 33.9788
same,normilazed value = (L-400/R-400),"OR2W1, log[molecule], M = -5.5",30.0044 and 26.9494 and 25.4775
same,normilazed value = (L-400/R-400),"OR2W1, log[molecule], M = -5.75",22.1602 and 26.5902 and 25.5852
same,normilazed value = (L-400/R-400),"OR2W1, log[molecule], M = -6",23.2783 and 19.1056 and 20.6534
same,pEC50,"OR2W1, three-parameter fit, 95% CI (profile likelihood)",5.52 to 6.18
same,LogEC50,"OR2W1, three-parameter fit, 95% CI (profile likelihood), log[molecule], M",-6.181 to -5.515

# From PMC8583936, “Machine Learning Assisted Approach for Finding Novel High Activity Agonists of Human Ectopic Olfactory Receptors” (International Journal of Molecular Sciences, 2021)
